From patent publication US6620839B2, “1,3-disubstituted and 1,3,3-trisubstituted pyrrolidines as histamine-3 receptor ligands and their therapeutic applications” (Abbott Laboratories, priority 2000, dated 2003)

biological target: T1, histamine-3 receptor (Rattus norvegicus, UniProt Q9QYN8); assay: Histamine-3 receptor binding, (3H)-N-α-methylhistamine displacement in rat cortical membranes; conditions: male Sprague-Dawley rat brain cortical membranes; (3H)-N-α-methylhistamine ~0.6 nM; 30 minutes at 25° C.; Cheng-Prusoff
T1 construct: from tissue; host or cells: male Sprague-Dawley rat brain cortex membranes
Method in brief: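 Male Sprague-Dawley rat cortical membranes incubated 30 min at 25 °C with compound dilutions and [3H]-N-α-methylhistamine. Nonspecific binding defined with 3 μM thioperamide. Filtration and scintillation counting used; Ki from Hill transformation and Cheng-Prusoff equation.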

T1 sequence (Q9QYN8 whole entry): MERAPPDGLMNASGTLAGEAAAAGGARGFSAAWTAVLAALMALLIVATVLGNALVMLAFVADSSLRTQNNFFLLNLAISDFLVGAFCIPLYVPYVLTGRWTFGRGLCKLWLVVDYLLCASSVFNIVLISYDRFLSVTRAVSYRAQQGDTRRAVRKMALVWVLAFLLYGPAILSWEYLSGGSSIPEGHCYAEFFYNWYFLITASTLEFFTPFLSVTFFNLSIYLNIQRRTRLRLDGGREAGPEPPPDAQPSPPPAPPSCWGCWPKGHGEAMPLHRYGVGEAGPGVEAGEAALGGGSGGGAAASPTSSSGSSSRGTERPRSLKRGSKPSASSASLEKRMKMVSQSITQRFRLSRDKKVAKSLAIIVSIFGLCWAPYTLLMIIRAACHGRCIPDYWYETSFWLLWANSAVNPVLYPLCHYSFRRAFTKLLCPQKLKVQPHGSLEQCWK

SMILES | Ki [µM]
Cn1cnc(S(=O)(=O)N[C@@H]2CCN(CCCOc3ccc(-c4ccccn4)cc3)C2)c1 [Example 105, 1-methyl-N-((3R)-1-{3-[4-(2-pyridinyl)phenoxy]propyl}pyrrolidinyl)-1 H-imidazole-4-sulfonamide] | 0.725
COc1ccc(S(=O)(=O)N[C@@H]2CCN(CCCOc3ccc(-c4ccccn4)cc3)C2)cc1OC [Example 106, 3,4-dimethoxy-N-((3R)-1-{3-[4-(2-pyridinyl)phenoxy]propyl}pyrrolidinyl)benzenesulfonamide] | 0.168
CC(=O)Nc1ccc(S(=O)(=O)N[C@@H]2CCN(CCCOc3ccc(-c4ccccn4)cc3)C2)cc1Cl [Example 107] | 0.2
CN(C(=O)c1csc(-c2cccnc2)n1)[C@@H]1CCN(CCCOc2ccc(-c3ccc(C#N)cc3)cc2)C1 [Example 123] | 0.0056
CN([C@@H]1CCN(CCCOc2ccc(-c3ccc(C#N)cc3)cc2)C1)S(=O)(=O)c1cccc(F)c1 [Example 125] | 0.0074
CN([C@@H]1CCN(CCCOc2ccc(-c3ccc(C#N)cc3)cc2)C1)S(=O)(=O)c1ccc(C#N)cc1 [Example 126, 4-cyano-N-((3R)-1-{3-[(4′-cyano[1,1′-biphenyl]-4-yl)oxy]propyl}pyrrolidinyl)-N-methylbenzenesulfonamide] | 0.0046
CC(C)c1ccc(S(=O)(=O)N(C)[C@@H]2CCN(CCCOc3ccc(-c4ccc(C#N)cc4)cc3)C2)cc1 [Example 127, N-((3R)-1-{3-[(4′-cyano[1,1′-biphenyl]-4-yl)oxy]propyl}pyrrolidinyl)-4-isoproply-N-methylbenzensulfonamide] | 0.016
CN([C@@H]1CCN(CCCOc2ccc(-c3ccc(C#N)cc3)cc2)C1)S(=O)(=O)c1ccc(S(C)(=O)=O)cc1 [Example 128] | 0.0023
C=CCOC(=O)N[C@@H]1CCN(CCCOc2ccc(-c3ccc(C#N)cc3)cc2)C1 [Example 132, allyl (3R)-1-{3-[(4′-cyano[1,1′-biphenyl]-4-yl)oxy]propyl}pyrrolidinylcarbamate] | 0.074
N#Cc1ccc(-c2ccc(OCCCN3CC[C@@H](NC(=O)N4CCCC4)C3)cc2)cc1 [Example 136] | 0.215
N#Cc1ccc(-c2ccc(OCCCN3CC[C@@H](NC(=O)N4CCOCC4)C3)cc2)cc1 [Example 138] | 0.118
N#Cc1ccc(-c2ccc(OCCCN3CC[C@@H](NC(=O)c4ccc(F)cc4)C3)cc2)cc1 [Example 139] | 0.288
N#Cc1ccc(C(=O)N[C@@H]2CCN(CCCOc3ccc(-c4ccc(C#N)cc4)cc3)C2)cc1 [Example 140, 4-cyano-N-((3R)-1-{3-[(4′-cyano[1,1′-biphenyl]-4-yl)oxy]propyl}pyrrolidinyl)benzamide] | 0.22
N#Cc1ccc(-c2ccc(OCCCN3CC[C@@H](NC(=O)c4cccnc4)C3)cc2)cc1 [Example 141] | 0.342
N#Cc1ccc(-c2ccc(OCCCN3CC[C@@H](NC(=O)c4ccco4)C3)cc2)cc1 [Example 142] | 0.321
N#Cc1ccc(-c2ccc(OCCCN3CC[C@@H](NC(=O)c4csc(-c5cccnc5)n4)C3)cc2)cc1 [Example 143] | 0.085
CC(C)S(=O)(=O)N[C@@H]1CCN(CCCOc2ccc(-c3ccc(C#N)cc3)cc2)C1 [Example 144] | 0.021
CS(=O)(=O)c1ccc(S(=O)(=O)N[C@@H]2CCN(CCCOc3ccc(-c4ccc(C#N)cc4)cc3)C2)cc1 [Example 146] | 0.003
N#Cc1ccc(-c2ccc(OCCCN3CC[C@@H](N(C(=O)N4CCCC4)C(=O)N4CCCC4)C3)cc2)cc1 [Example 149] | 0.329
N#Cc1ccc(-c2ccc(OCCCN3CC[C@@H](N(C(=O)N4CCOCC4)C(=O)N4CCOCC4)C3)cc2)cc1 [Example 150] | 0.267
Cc1cc(-c2ccc(OCCCN3CC[C@@H](N(C)C)C3)cc2)ccc1C#N [Example 164, 4′-{3-[(3R)-3-(dimethylamino)-1-pyrrolidinyl]propoxy}-3-methyl-1,1′-biphenyl-4-carbonitrile] | 0.048
Cc1cc(C#N)ccc1-c1ccc(OCCCN2CC[C@@H](N(C)C)C2)cc1 [Example 165, 4′-{3-[(3R)-3-(dimethylamino)-1-pyrrolidinyl]propoxy}-2-methyl-1,1′-biphenyl-4-carbonitrile] | 0.017
CN(C)[C@@H]1CCN(CCCOc2ccc(-c3ccc(C#N)c(F)c3)cc2)C1 [Example 166, 4′-{3-[(3R)-3-(dimethylamino)-1-pyrrolidinyl}propoxy]-3-fluoro-1,1′-biphenyl-4-carbonitrile] | 0.073
CN(C)[C@@H]1CCN(CCCOc2ccc(-c3ccc(C#N)cc3)cc2F)C1 [Example 167, 4′-{3-[(3R)-3-(dimethylamino)-1-pyrrolidinyl]propoxy}-3′-fluoro-1,1′-biphenyl-4-carbonitrile] | 0.009
Cc1cc(-c2ccc(C#N)cc2)ccc1OCCCN1CC[C@@H](N(C)C)C1 [Example 168, 4′-{3-[(3R)-3-(dimethylamino)-1-pyrrolidinyl]propoxy}-3′-methyl-1,1′-biphenyl-4-carbonitrile] | 0.074
CN(C)[C@@H]1CCN(CCCOc2ccc(-c3ccc(C#N)cc3)cc2I)C1 [Example 169, 4′-{3-[(3R)-3-(dimethylamino)-1-pyrrolidinyl]propoxy}-3 ′-iodo-1,1′-biphenyl-4-carbonitrile] | 0.206
Cc1cc(OCCCN2CC[C@@H](N(C)C)C2)ccc1-c1ccc(C#N)cc1 [Example 170, 4′-{3-[(3R)-3-(dimethylamino)-1-pyrrolidinyl]propoxy}-2′-methyl-1,1′-biphenyl-4-carbonitrile] | 0.051
CN(C)[C@@H]1CCN(CCCOc2ccc(-c3ccc(C#N)cc3)cc2Cl)C1 [Example 171, 3′-chloro-4′-{3-[(3R)-3-(dimethylamino)-1-pyrrolidinyl]propoxy}-1,1′-biphenyl-4-carbonitrile] | 0.041

Next, values leading:

Ki [µM] | SMILES
0.026 | CN(C(=O)OC(C)(C)C)[C@@H]1CCN(CCCOc2ccc(-c3ccc(C#N)cc3)cc2)C1 [Example 109, tert-butyl (3R)-1-{3-[(4′-cyano[1,1′-biphenyl]-4-yl)oxy]propyl}pyrrolidinyl(methyl)carbamate]
0.011 | CC(=O)N(C)[C@@H]1CCN(CCCOc2ccc(-c3ccc(C#N)cc3)cc2)C1 [Example 111]
0.013 | CN(C(=O)CC(C)(C)C)[C@@H]1CCN(CCCOc2ccc(-c3ccc(C#N)cc3)cc2)C1 [Example 112]
0.013 | COC(=O)N(C)[C@@H]1CCN(CCCOc2ccc(-c3ccc(C#N)cc3)cc2)C1 [Example 113, methyl (3R)-1-{3-[(4′-cyano[1,1′-biphenyl]-4-yl)oxy]propyl}pyrrolidinyl(methyl)carbamate]
0.065 | CCC(C)(C)OC(=O)N(C)[C@@H]1CCN(CCCOc2ccc(-c3ccc(C#N)cc3)cc2)C1 [Example 114, tert-pentyl (3R)-1-{3-[(4′-cyano[1,1′-biphenyl]-4-yl)oxy]propyl}pyrrolidinyl(methyl)carbamate]
0.021 | CN(C)C(=O)N(C)[C@@H]1CCN(CCCOc2ccc(-c3ccc(C#N)cc3)cc2)C1 [Example 115, N-((3R)-1-{3-[(4′-cyano[1,1′-biphenyl]-4-yl)oxy]propyl}pyrrolidinyl)-N,N,′N′-trimethylurea]
0.014 | CN(C(=O)N1CCCC1)[C@@H]1CCN(CCCOc2ccc(-c3ccc(C#N)cc3)cc2)C1 [Example 116]
0.045 | CN(C(=O)NC(C)(C)C)[C@@H]1CCN(CCCOc2ccc(-c3ccc(C#N)cc3)cc2)C1 [Example 117, N′-tert-butyl-N-((3R)-1-{3-[(4′-cyano[1,1′-biphenyl]-4-yl)oxy]propyl}pyrrolidinyl)-N-methylurea]
0.0057 | CN(C(=O)N1CCOCC1)[C@@H]1CCN(CCCOc2ccc(-c3ccc(C#N)cc3)cc2)C1 [Example 118]
0.0077 | CN(C(=O)c1ccc(F)cc1)[C@@H]1CCN(CCCOc2ccc(-c3ccc(C#N)cc3)cc2)C1 [Example 119]
0.01 | CN(C(=O)c1ccc(C#N)cc1)[C@@H]1CCN(CCCOc2ccc(-c3ccc(C#N)cc3)cc2)C1 [Example 120, 4-cyano-N-((3R)-1-{3-[(4′-cyano[1,1′-biphenyl]-4-yl)oxy]propyl}pyrrolidinyl)-N-methylbenzamide]
0.016 | CN(C(=O)c1cccnc1)[C@@H]1CCN(CCCOc2ccc(-c3ccc(C#N)cc3)cc2)C1 [Example 121]
0.02 | CN(C(=O)c1ccco1)[C@@H]1CCN(CCCOc2ccc(-c3ccc(C#N)cc3)cc2)C1 [Example 122]
0.0029 | CN(C)S(=O)(=O)N(C)[C@@H]1CCN(CCCOc2ccc(-c3ccc(C#N)cc3)cc2)C1 [Example 124]
0.031 | CC(=O)N[C@@H]1CCN(CCCOc2ccc(-c3ccc(C#N)cc3)cc2)C1 [Example 130]
0.051 | CC(C)(C)CC(=O)N[C@@H]1CCN(CCCOc2ccc(-c3ccc(C#N)cc3)cc2)C1 [Example 131]
0.057 | COC(=O)N[C@@H]1CCN(CCCOc2ccc(-c3ccc(C#N)cc3)cc2)C1 [Example 133, methyl (3R)-1-{3-[(4′-cyano[1,1′-biphenyl]-4-yl)oxy]propyl}pyrrolidinylcarbamate]
0.168 | CCC(C)(C)OC(=O)N[C@@H]1CCN(CCCOc2ccc(-c3ccc(C#N)cc3)cc2)C1 [Example 134, tert-pentyl (3R)-1-{3-[(4′-cyano[1,1′-biphenyl]-4-yl)oxy]propyl}pyrrolidinylcarbamate]
0.132 | CN(C)C(=O)N[C@@H]1CCN(CCCOc2ccc(-c3ccc(C#N)cc3)cc2)C1 [Example 135]
0.196 | CC(C)(C)NC(=O)N[C@@H]1CCN(CCCOc2ccc(-c3ccc(C#N)cc3)cc2)C1 [Example 137, N-(tert-butyl)-N′-((3R)-1-{3-[(4′-cyano[1,1′-biphenyl]-4-yl)oxy]propyl}pyrrolidinyl)urea]
0.0096 | CN(C)S(=O)(=O)N[C@@H]1CCN(CCCOc2ccc(-c3ccc(C#N)cc3)cc2)C1 [Example 145]
0.209 | CC(C)(C)CC(=O)N(C(=O)CC(C)(C)C)[C@@H]1CCN(CCCOc2ccc(-c3ccc(C#N)cc3)cc2)C1 [Example 147]
0.291 | CN(C)C(=O)N(C(=O)N(C)C)[C@@H]1CCN(CCCOc2ccc(-c3ccc(C#N)cc3)cc2)C1 [Example 148]
